Test results: ChEMBL document CHEMBL1255530, “3D-QSAR CoMFA study of benzoxazepine derivatives as mGluR5 positive allosteric modulators” (Bioorg Med Chem Lett, 2010)

target: Metabotropic glutamate receptor 5 (Rattus norvegicus, UniProt P31424); assay: Positive allosteric modulation of rat mGluR5 expressed in HEK293 cells
Sequence (P31424 whole entry): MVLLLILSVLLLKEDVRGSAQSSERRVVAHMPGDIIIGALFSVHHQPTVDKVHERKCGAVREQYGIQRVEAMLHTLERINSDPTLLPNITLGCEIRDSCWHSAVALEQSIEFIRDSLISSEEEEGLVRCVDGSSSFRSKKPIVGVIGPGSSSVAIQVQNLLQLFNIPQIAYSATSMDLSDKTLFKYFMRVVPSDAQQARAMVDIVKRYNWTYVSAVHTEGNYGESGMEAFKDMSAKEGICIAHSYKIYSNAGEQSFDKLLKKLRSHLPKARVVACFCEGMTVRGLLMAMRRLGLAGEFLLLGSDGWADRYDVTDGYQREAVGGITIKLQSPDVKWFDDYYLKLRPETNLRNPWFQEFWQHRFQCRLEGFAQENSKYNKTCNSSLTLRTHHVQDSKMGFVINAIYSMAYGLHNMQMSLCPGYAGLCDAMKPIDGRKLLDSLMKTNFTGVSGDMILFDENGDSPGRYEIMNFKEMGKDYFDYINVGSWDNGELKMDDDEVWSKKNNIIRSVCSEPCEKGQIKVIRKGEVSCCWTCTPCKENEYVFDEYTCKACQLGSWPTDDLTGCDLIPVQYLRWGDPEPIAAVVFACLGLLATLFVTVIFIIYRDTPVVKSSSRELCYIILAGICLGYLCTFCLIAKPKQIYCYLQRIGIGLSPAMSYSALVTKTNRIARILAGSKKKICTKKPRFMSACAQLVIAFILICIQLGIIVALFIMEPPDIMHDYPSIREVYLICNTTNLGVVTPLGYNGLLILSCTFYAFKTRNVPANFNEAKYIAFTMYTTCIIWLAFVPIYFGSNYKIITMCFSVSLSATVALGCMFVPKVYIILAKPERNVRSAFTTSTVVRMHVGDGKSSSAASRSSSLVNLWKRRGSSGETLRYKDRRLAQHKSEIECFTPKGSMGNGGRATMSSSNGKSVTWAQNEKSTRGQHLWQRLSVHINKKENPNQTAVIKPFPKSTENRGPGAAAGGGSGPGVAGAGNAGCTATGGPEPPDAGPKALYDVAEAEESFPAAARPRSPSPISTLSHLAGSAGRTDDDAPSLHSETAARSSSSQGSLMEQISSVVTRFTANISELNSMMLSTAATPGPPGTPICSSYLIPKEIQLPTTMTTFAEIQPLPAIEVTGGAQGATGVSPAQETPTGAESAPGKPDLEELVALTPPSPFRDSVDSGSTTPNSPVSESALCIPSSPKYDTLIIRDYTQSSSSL

| SMILES | EC50 |
| --- | --- |
| CCCCSc1nnc2c(n1)O[C@@H](CC)N(C(C)=O)c1ccccc1-2 | 3980 nM |
| CSc1nnc2c(n1)O[C@@H](c1cn(C)c3ccccc13)N(C(C)=O)c1ccccc1-2 | 1820 nM |
| CSc1nnc2c(n1)O[C@@H](c1ccc(OC(C)=O)c(Br)c1)N(C(C)=O)c1ccccc1-2 | 3800 nM |
| CCC(=O)N1c2ccccc2-c2nnc(SC)nc2O[C@H]1c1ccccc1Br | 1350 nM |
| CCOc1cc([C@@H]2Oc3nc(SC)nnc3-c3ccccc3N2C(=O)CC)cc(Br)c1OC | 7080 nM |
| CCCC(=O)N1c2ccccc2-c2nnc(SC)nc2O[C@H]1c1cccc(OC)c1 | 1020 nM |
| CCC(=O)N1c2ccccc2-c2nnc(SC)nc2O[C@H]1c1ccc(C)s1 | 1950 nM |
| CSc1nnc2c(n1)O[C@@H](c1cccc(C)n1)N(C(C)=O)c1ccccc1-2 | 7590 nM |
| CSc1nnc2c(n1)O[C@@H](c1ccccn1)N(C(C)=O)c1ccccc1-2 | 5250 nM |
| CCC(=O)N1c2ccccc2-c2nnc(SC)nc2O[C@H]1c1cc(Cl)c(OC)c(OC)c1 | 1200 nM |
| CCCCSc1nnc2c(n1)O[C@@H](c1cccc(F)c1)N(C(C)=O)c1ccccc1-2 | 513 nM |
| CCC(=O)N1c2ccccc2-c2nnc(SC)nc2O[C@H]1c1ccccn1 | 7410 nM |
| C=CCOc1ccc([C@@H]2Oc3nc(SC)nnc3-c3ccccc3N2C(C)=O)cc1 | 2570 nM |
| CSc1nnc2c(n1)O[C@@H](c1ccc(C)cc1)N(C(C)=O)c1ccccc1-2 | 2750 nM |
| CCCCSc1nnc2c(n1)O[C@@H](c1cccn1C)N(C(C)=O)c1ccccc1-2 | 692 nM |
| CCC(=O)N1c2ccccc2-c2nnc(SC)nc2O[C@H]1c1ccc(OC)c(C)c1 | 3630 nM |
| CCSc1nnc2c(n1)O[C@@H](c1cc(Br)ccc1OC)N(C(=O)CC)c1ccccc1-2 | 813 nM |
| CCSc1nnc2c(n1)O[C@@H](c1ccccn1)N(C(=O)CC)c1ccccc1-2 | 4370 nM |
| CSc1nnc2c(n1)O[C@@H](c1cccc(Oc3ccccc3)c1)N(C(C)=O)c1ccccc1-2 | 2950 nM |
| CSc1nnc2c(n1)O[C@@H](c1ccccc1C)N(C(C)=O)c1ccccc1-2 | 3020 nM |
| CCC(=O)N1c2ccccc2-c2nnc(SC)nc2O[C@H]1c1cc(Br)c(OC)c(OC)c1 | 1230 nM |
| CCSc1nnc2c(n1)O[C@@H](c1cccc(OC)c1)N(C(=O)CC)c1ccccc1-2 | 107 nM |
| CCSc1nnc2c(n1)O[C@@H](c1ccc(SC)cc1)N(C(=O)CC)c1ccccc1-2 | 1230 nM |
| C=CCSc1nnc2c(n1)O[C@@H](c1ccc(OC)c(OC)c1OC)N(C(C)=O)c1ccccc1-2 | 7760 nM |
| CSc1nnc2c(n1)O[C@@H](c1ccsc1)N(C(C)=O)c1ccccc1-2 | 1020 nM |

| SMILES | EC50 |
| --- | --- |
| COc1ccc(OC)c([C@@H]2Oc3nc(SC)nnc3-c3ccccc3N2C(C)=O)c1 | 891 nM |
| CCC(=O)N1c2ccccc2-c2nnc(SC)nc2O[C@H]1c1ccccc1F | 1780 nM |
| C=CCSc1nnc2c(n1)O[C@@H](c1ccc(OC(C)=O)c(OCC)c1)N(C(C)=O)c1ccccc1-2 | 1260 nM |
| CCC(=O)N1c2ccccc2-c2nnc(SC)nc2O[C@H]1c1cccc(C)n1 | 2340 nM |
| CCC(=O)Oc1ccc(Br)c([C@@H]2Oc3nc(SC)nnc3-c3ccccc3N2C(=O)CC)c1 | 5750 nM |
| CCCSc1nnc2c(n1)O[C@@H](c1cc(OC)c(OC)cc1Cl)N(C(C)=O)c1ccccc1-2 | 1200 nM |
| CCCSc1nnc2c(n1)O[C@@H](c1cccn1C)N(C(C)=O)c1ccccc1-2 | 347 nM |
| C=CCSc1nnc2c(n1)O[C@@H](c1cc(C)ccc1OC(C)=O)N(C(C)=O)c1ccccc1-2 | 891 nM |
| CCC(=O)N1c2ccccc2-c2nnc(SC)nc2O[C@H]1c1cc(OC)c(OC)c(OC)c1 | 832 nM |
| CCSc1nnc2c(n1)O[C@@H](c1cccs1)N(C(=O)CC)c1ccccc1-2 | 309 nM |
| CCSc1nnc2c(n1)O[C@@H](c1ccco1)N(C(=O)CC)c1ccccc1-2 | 813 nM |
| CCCCSc1nnc2c(n1)O[C@@H](c1ccsc1)N(C(C)=O)c1ccccc1-2 | 479 nM |
| CCCCSc1nnc2c(n1)O[C@@H](c1cccc(C)n1)N(C(C)=O)c1ccccc1-2 | 617 nM |
| CCCC(=O)N1c2ccccc2-c2nnc(SC)nc2O[C@H]1c1ccc(C(=O)OC)cc1 | 2240 nM |
| C=CCSc1nnc2c(n1)O[C@@H](c1ccc(OCC)c(OC)c1)N(C(C)=O)c1ccccc1-2 | 692 nM |
| C=CCSc1nnc2c(n1)O[C@@H](c1sccc1C)N(C(C)=O)c1ccccc1-2 | 457 nM |
| CCC(=O)N1c2ccccc2-c2nnc(SC)nc2O[C@H]1c1cc2c(cc1Cl)OCO2 | 5250 nM |
| CCSc1nnc2c(n1)O[C@@H](c1ccccc1F)N(C(C)=O)c1ccccc1-2 | 398 nM |
| C=CCSc1nnc2c(n1)O[C@@H](/C=C/c1cccs1)N(C(C)=O)c1ccccc1-2 | 229 nM |
| C=CCSc1nnc2c(n1)O[C@@H](c1cc(Br)c(OC(C)=O)c(OC)c1)N(C(C)=O)c1ccccc1-2 | 3310 nM |
| CCC(=O)N1c2ccccc2-c2nnc(SC)nc2O[C@H]1c1ccco1 | 4270 nM |
| CSc1nnc2c(n1)O[C@@H](c1cccc(OCc3ccccc3)c1)N(C(C)=O)c1ccccc1-2 | 3310 nM |
| CCCSc1nnc2c(n1)O[C@@H](c1ccccc1F)N(C(=O)CC)c1ccccc1-2 | 646 nM |
| C=CCSc1nnc2c(n1)O[C@@H](c1ccccc1F)N(C(C)=O)c1ccccc1-2 | 1120 nM |
| C=CCSc1nnc2c(n1)O[C@@H](/C=C/c1ccccc1)N(C(C)=O)c1ccccc1-2 | 1700 nM |

| SMILES | EC50 |
| --- | --- |
| CCC(=O)N1c2ccccc2-c2nnc(SC)nc2O[C@H]1c1ccc(I)o1 | 1410 nM |
| CCC(=O)N1c2ccccc2-c2nnc(SC)nc2O[C@H]1c1ccc(Cl)cc1 | 871 nM |
| CCCC(=O)N1c2ccccc2-c2nnc(SC)nc2O[C@H]1c1cccnc1 | 3890 nM |
| CCCC(=O)N1c2ccccc2-c2nnc(SC)nc2O[C@H]1c1sccc1C | 1860 nM |
| C=CCSc1nnc2c(n1)O[C@@H](c1cccs1)N(C(C)=O)c1ccccc1-2 | 316 nM |
| C=CCSc1nnc2c(n1)O[C@@H](c1ccco1)N(C(C)=O)c1ccccc1-2 | 1020 nM |
| CCC(=O)N1c2ccccc2-c2nnc(SC)nc2O[C@H]1c1ccccc1C | 2000 nM |
| CCC(=O)N1c2ccccc2-c2nnc(SC)nc2O[C@H]1c1ccc(OC)c(Br)c1 | 1100 nM |
| CCCSc1nnc2c(n1)O[C@@H](CC)N(C(C)=O)c1ccccc1-2 | 6760 nM |
| CCSc1nnc2c(n1)O[C@@H](C)N(C(C)=O)c1ccccc1-2 | 13800 nM |
| C=CCSc1nnc2c(n1)O[C@@H](c1ccccc1)N(C(C)=O)c1ccccc1-2 | 95.5 nM |
| C=CCSc1nnc2c(n1)O[C@@H](c1ccccn1)N(C(C)=O)c1ccccc1-2 | 562 nM |
| C=CCSc1nnc2c(n1)O[C@@H](c1ccccc1OCCC)N(C(C)=O)c1ccccc1-2 | 1320 nM |
| CCC(=O)N1c2ccccc2-c2nnc(SC)nc2O[C@H]1c1cc(Cl)ccc1OC | 759 nM |
| COc1ccc([C@@H]2Oc3nc(SC)nnc3-c3ccccc3N2C(C)=O)cc1 | 2750 nM |
| CSc1nnc2c(n1)O[C@@H](c1ccccc1F)N(C(C)=O)c1ccccc1-2 | 3470 nM |
| CSc1nnc2c(n1)O[C@H](c1cn(C(C)=O)c3ccccc13)N(C(C)=O)c1ccccc1-2 | 871 nM |
| C=CCOc1ccc([C@@H]2Oc3nc(SCC=C)nnc3-c3ccccc3N2C(C)=O)cc1 | 1200 nM |
| C=CCSc1nnc2c(n1)O[C@@H](c1ccc(N(C)C)cc1)N(C(C)=O)c1ccccc1-2 | 3160 nM |
| CCC(=O)N1c2ccccc2-c2nnc(SC)nc2O[C@H]1c1ccc(OC)cc1 | 2190 nM |
| CCC(=O)N1c2ccccc2-c2nnc(SC)nc2O[C@H]1c1ccccc1OC | 562 nM |
| C=CCSc1nnc2c(n1)O[C@@H](c1ccc(C)s1)N(C(C)=O)c1ccccc1-2 | 331 nM |
| CSc1nnc2c(n1)O[C@@H](c1ccc(Br)cc1)N(C(C)=O)c1ccccc1-2 | 1510 nM |
| CCSc1nnc2c(n1)O[C@H](c1ccc(OC(C)=O)c(OC)c1)N(C(C)=O)c1ccccc1-2 | 1000 nM |
| CCSc1nnc2c(n1)O[C@H](c1cc3c(cc1Br)OCO3)N(C(C)=O)c1ccccc1-2 | 4270 nM |

| SMILES | EC50 |
| --- | --- |
| CCCSc1nnc2c(n1)O[C@@H](c1ccncc1)N(C(C)=O)c1ccccc1-2 | 490 nM |
| CCCSc1nnc2c(n1)O[C@@H](c1ccccc1OC)N(C(C)=O)c1ccccc1-2 | 158 nM |
| CCC(=O)Oc1ccc(Cl)cc1[C@@H]1Oc2nc(SC)nnc2-c2ccccc2N1C(=O)CC | 3240 nM |
| CCC(=O)N1c2ccccc2-c2nnc(SC)nc2O[C@H]1c1cc(OC)ccc1OC | 191 nM |
| CCOc1ccccc1[C@@H]1Oc2nc(SC)nnc2-c2ccccc2N1C(C)=O | 1230 nM |
| CCSc1nnc2c(n1)O[C@H](c1ccccc1C)N(C(C)=O)c1ccccc1-2 | 2040 nM |
| CCSc1nnc2c(n1)O[C@H](c1cccnc1)N(C(C)=O)c1ccccc1-2 | 1820 nM |
| CSc1nnc2c(n1)O[C@@H](c1cccc(F)c1)N(C(C)=O)c1ccccc1-2 | 1260 nM |
| CSc1nnc2c(n1)O[C@@H](c1c(C)[nH]c3ccccc13)N(C(C)=O)c1ccccc1-2 | 4070 nM |
| CCOc1ccc(Br)cc1[C@@H]1Oc2nc(SC)nnc2-c2ccccc2N1C(=O)CC | 398 nM |
| CCCC(=O)N1c2ccccc2-c2nnc(SC)nc2O[C@H]1c1cccc(C)n1 | 1950 nM |
| CCCSc1nnc2c(n1)O[C@H](c1ccccc1OC(C)=O)N(C(C)=O)c1ccccc1-2 | 1320 nM |
| CCSc1nnc2c(n1)O[C@@H](c1cc(OC(C)=O)ccc1Cl)N(C(C)=O)c1ccccc1-2 | 3800 nM |
| CSc1nnc2c(n1)O[C@@H](c1cccn1C)N(C(C)=O)c1ccccc1-2 | 9550 nM |
| CCSc1nnc2c(n1)O[C@@H](c1ccc(C)s1)N(C(C)=O)c1ccccc1-2 | 1200 nM |
| CCCC(=O)N1c2ccccc2-c2nnc(SC)nc2O[C@H]1c1ccc(OC)cc1OC | 2090 nM |
| CCCC(=O)N1c2ccccc2-c2nnc(SC)nc2O[C@H]1c1cccs1 | 871 nM |
| CCCOc1ccccc1[C@@H]1Oc2nc(SCC)nnc2-c2ccccc2N1C(C)=O | 1120 nM |
| CCSc1nnc2c(n1)O[C@@H](c1ccco1)N(C(C)=O)c1ccccc1-2 | 871 nM |
| CCC(=O)N1c2ccccc2-c2nnc(SC)nc2O[C@H]1c1ccc(Br)s1 | 1120 nM |
| CCOc1cc([C@@H]2Oc3nc(SC)nnc3-c3ccccc3N2C(=O)CC)ccc1OC | 1380 nM |
| CCCC(=O)N1c2ccccc2-c2nnc(SC)nc2O[C@H]1c1ccc(C)o1 | 2240 nM |
| C=CCSc1nnc2c(n1)O[C@@H](c1cccnc1)N(C(C)=O)c1ccccc1-2 | 832 nM |
